Data on nine molecules can be found in patent US10350206B2, “Benzyl substituted indazoles as BUB1 inhibitors” (Bayer Pharma Aktiengesellschaft, priority 2014, dated 2019).

In assay [1] the target is T1, catalytic domain of human Bub1 (amino acids 704-1085) (Homo sapiens, UniProt O43683).
T1 construct: catalytic domain of human Bub1 (amino acids 704-1085); His6 (N); made in house; host or cells: Hi5 insect cells
The assay can be described thus: Bub1 kinase assay (TR-FRET). In kind it is biochemical. The conditions noted are these: 10 μM ATP, 60 min reaction, pH 7.5; read-out: Biological Assay 1: Bub1 kinase assay median IC50. The protocol: To this end, 100-fold concentrated compound solutions (in DMSO) were previously prepared by serial dilution (1:3.4) of 2 mM stocks in a clear low volume 384-well source microtiter plate (Greiner Bio-One, Frickenhausen, Germany), from which 50 nL of compounds were transferred into a black low volume test microtiter plate from the same supplier. […] The resulting mixture (5 μL final volume) was incubated at 22° during 60 min., and the reaction was stopped by the addition of 5 μL of an aqueous EDTA-solution (50 mM EDTA, in 100 mM HEPES pH 7.5 and 0.2% (w/v) bovine serum albumin) which also contained the TR-FRET detection reagents (0.2 μM streptavidin-XL665 [Cisbio Bioassays, Codolet, France] and 1 nM anti-phosho-Serine antibody [Merck Millipore, cat. #35-001] and 0.4 nM LANCE EU-W1024 labeled anti-mouse IgG antibody [Perkin-Elmer, product no. AD0077, alternatively a Terbium-cryptate-labeled anti-mouse IgG antibody from Cisbio Bioassays can be used]). The stopped reaction mixture was further incubated 1 h at 22° C. in order to allow the formation of complexes between peptides and detection reagents. Subsequently, the amount of product was evaluated by measurement of the resonance energy transfer from the Eu-chelate-antibody complex recognizing the Phosphoserine residue to the streptavidin-XL665 bound to the biotin moiety of the peptide. […] IC50 values were calculated by fitting the normalized inhibition data to a 4-parameter logistic equation (Minimum, Maximum, IC50, Hill; Y=Max+(Min−Max)/(1+(X/IC50)Hill)).
Background: TR-FRET usually uses a lanthanide donor and a delayed reading to cut background.

Assay [2] deals with HeLa human cervical tumor cells. The assay can be described thus: Proliferation assay (HeLa cell line). Conditions: 96 h, 4 days incubation, crystal violet, read-out: Biological Assay 2: Proliferation assay (HeLa cell line) median IC50. The assay is classed as cell-based. The method, then: Human tumour cells were originally obtained from the American Type Culture Collection (ATCC), the Deutsche Sammlung von Mikroorganismen und Zellkulturen (DSMZ, German Collection of Microorganisms and Cell Cultures), or Epo GmbH Berlin. Cultivated HeLa human cervical tumor cells (DSMZ ACC-57) were plated at a density of 3000 cells/well in a 96-well multititer plate in 200 μL of growth medium supplemented 10% fetal calf serum. After 24 hours, the cells of one plate (zero-point plate) were stained with crystal violet (see below), while the medium of the other plates was supplemented with the test substances in various concentrations (0 μM, as well as in the range of 0.001-10 μM; the final concentration of the solvent dimethyl sulfoxide was adjusted to 0.1%) using a Hewlett-Packard HP D300 Digital Dispenser. The cells were incubated for 4 days in the presence of test substances. […] After three washing cycles of the fixed cells with water, the plates were dried at room temperature. The cells were stained by adding 100 μL/measuring point of a 0.1% crystal violet solution (pH 3.0). After three washing cycles of the stained cells with water, the plates were dried at room temperature. The dye was dissolved by adding 100 μL/measuring point of a 10% acetic acid solution. […] The change of cell number, in percent, was calculated by normalization of the measured values to the absorption values of the zero-point plate (=0%) and the absorption of the untreated (0 μm) cells (=100%). The IC50 values were determined by means of a 4 parameter fit.

Assay [3] shares this test system. The assay can be described thus: Proliferation Assay (HeLa+Paclitaxel). The conditions noted are these: 3 nM paclitaxel, test substance 92 hours; read-out: Biological Assay 3: Proliferation Assay (HeLa + Paclitaxel) IC50. In kind it is cell-based. The method, then:
Proliferation Assay (HeLa+Paclitaxel):
Cultivated HeLa human cervical tumor cells (DSMZ ACC-57) were plated at a density of 3000 cells/well in a 96-well multititer plate in 200 μL of growth medium supplemented 10% fetal calf serum. After 24 hours, the cells of one plate (zero-point plate) were stained with crystal violet (see below). The medium of the other plates was supplemented with 3 nM of paclitaxel (Sigma-Aldrich) and the cells were incubated at 37° C. After 4 hours the test substances were added in various concentrations (0 μM, as well as in the range of 0.001-10 μM; the final concentration of the solvent dimethyl sulfoxide was adjusted to 0.1%) using a Hewlett-Packard HP D300 Digital Dispenser. The cells were incubated for another 92 hours at 37° C. in the presence of test substances. […] After three washing cycles of the fixed cells with water, the plates were dried at room temperature. The cells were stained by adding 100 μL/measuring point of a 0.1% crystal violet solution (pH 3.0). After three washing cycles of the stained cells with water, the plates were dried at room temperature. The dye was dissolved by adding 100 μL/measuring point of a 10% acetic acid solution. […] The change of cell number, in percent, was calculated by normalization of the measured values to the absorption values of the zero-point plate (=0%) and the 5 absorption of the untreated (0 μm) cells (=100%). The IC50 values were determined by means of a 4 parameter fit.

Assay [4] relates to Bub1 kinase (histone 2A phosphorylation). Nature of the assay: H2A Formation-Assay (cell-based mechanistic assay, co-treatment with Nocodazole). Conditions: 16 h, Nocodazole 1 μg/ml together with test compound for 16 h; read-out: Biological Assay 4.1: H2A Formation IC50. The method, then: Biological Assay 4.1: Formation-Assay
Cell-Based Mechanistic Assay: Changes of Phosphorylation Status of Histone 2A by Inhibition of Kinase Activity of Bub1
This assay determines the suppression of histone 2A phosphorylation by a Bub1 kinase inhibitor during co-treatment with Nocodazole. 25000 cells (cells were ordered from ATCC) were seeded in 96 well plate for 5 h at 37° C. Cells were treated with Nocodazole (1 μg/ml) and varying concentrations (between 3 nM and 10 μM) of test compounds for 16h. Cells were fixed (20 min, Fixing solution R&D), washed three times with PBS and blocked with Odyssey blocking buffer before incubating with the primary antibody against phosphorylated H2A (5 μg/ml ABIN482721) overnight at […]. After washing, secondary IRDye-labeled antibody mix with cell stains was added for 1h and washed again with PBS. Plates were scanned with LiCor Odyssey Infrared Imager CLx at 800 nm for P-H2A and at 700 nm for cell stains Draq5/Sapphire. The quotient of 800 nm and 700 nm for Nocodazole only treated cells was set as 100% and the quotient of 800 nm and 700 nm of untreated cells was set as 0%. […] The IC50 values were determined by means of a 4 parameter fit.
(§1) Histone H2A is an immediate intracellular substrate of Bub1 kinase. Determination of the phosphorylation status of Histone H2A provides a direct measure of the intracellular activity of Bub1 kinase.

Assay [5] concerns Bub1 kinase (pre-induced phospho-histone 2A). Nature of the assay: H2A Abrogation-Assay (cell-based mechanistic assay, pre-treatment with Nocodazole). Conditions: Nocodazole 1 μg/ml 16 h, then test compound 1 h; read-out: Biological Assay 4.2: H2A Abrogation IC50. The method, then: Biological Assay 4.2: Abrogation-Assay
Cell-Based Mechanistic Assay: Changes of Phosphorylation Status of Pre-Induced Phospho-Histone 2A by Inhibition of Kinase Activity of Bub1
This assay measures the inhibition of histone 2A phosphorylation, which was induced by pre-treatment of the cells with Nocodazole, by a Bub1 kinase inhibitor. 25000 cells (cells were ordered from ATCC) were seeded in 96 well plate for 5 h at 37° C. Cells were treated with Nocodazole (1 μg/ml). After 16h varying concentrations (between 3 nM and 10 μM) of test compounds were added and the cells were incubated for another 1h. Cells were fixed (20 min, Fixing solution R&D), washed three times with PBS and blocked with Odyssey blocking buffer before incubating with the primary antibody against phosphorylated H2A (5 μg/ml ABIN482721) overnight at 2-8° C. After washing, secondary IRDye-labeled antibody mix with cell stains was added for 1h and washed again with PBS. Plates were scanned with LiCor Odyssey Infrared Imager CLx at 800 nm for P-H2A and at 700 nm for cell stains Draq5/Sapphire. The quotient of 800 nm and 700 nm for Nocodazole only treated cells was set as 100% and the quotient of 800 nm and 700 nm of untreated cells was set as 0%. […] The IC50 values were determined by means of a 4 parameter fit.
as §1

T1 sequence (O43683 704-1085): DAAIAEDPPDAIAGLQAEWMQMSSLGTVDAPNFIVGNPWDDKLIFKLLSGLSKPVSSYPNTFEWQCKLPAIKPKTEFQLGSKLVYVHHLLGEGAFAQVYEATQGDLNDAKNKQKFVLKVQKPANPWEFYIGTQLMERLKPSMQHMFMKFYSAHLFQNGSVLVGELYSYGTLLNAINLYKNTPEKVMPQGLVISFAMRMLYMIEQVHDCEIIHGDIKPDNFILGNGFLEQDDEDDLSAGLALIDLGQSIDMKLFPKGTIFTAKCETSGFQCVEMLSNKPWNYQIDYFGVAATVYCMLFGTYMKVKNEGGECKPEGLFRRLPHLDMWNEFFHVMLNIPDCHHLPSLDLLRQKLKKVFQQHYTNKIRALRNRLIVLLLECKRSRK

Consider `COc1cnc(-c2nn(Cc3c(F)cc(OCCO)cc3F)c3ccccc23)nc1Nc1ccncc1C` [Example 2-1-5, 2-{3,5-difluoro-4-[(3-{5-methoxy-4-[(3-methylpyridin-4-yl)amino]pyrimidin-2-yl}-1H-indazol-1-yl)methyl]phenoxy}ethanol], for which the IC50 in assay [1] was 10 nM; in assay [2], 3100 nM; in assay [3], 150 nM; in assay [4], 6.9 nM; in assay [5] it was 600 nM.

As for `COc1cnc(-c2nn(Cc3c(F)cc(OCCO)cc3F)c3ccccc23)nc1Nc1ccncc1F` [Example 2-1-6, 2-{3,5-difluoro-4-[(3-{4-[(3-fluoropyridin-4-yl)amino]-5-methoxypyrimidin-2-yl}-1H-indazol-1-yl)methyl]phenoxy}ethanol], the IC50 in assay [1] was 7.7 nM; in assay [2], 8500 nM; in assay [3], 370 nM; in assay [4], 56 nM; in assay [5] it was 890 nM.

For `COc1cnc(-c2nn(Cc3c(F)cc(OCCO)cc3F)c3ccccc23)nc1Nc1ccnc(F)c1` [Example 2-1-11, 2-{3,5-difluoro-4-[(3-{4-[(2-fluoropyridin-4-yl)amino]-5-methoxypyrimidin-2-yl}-1H-indazol-1-yl)methyl]phenoxy}ethanol], the IC50 was 19 nM in assay [1]; 5100 nM in assay [2]; 110 nM in assay [3]; 4.9 nM in assay [4]; 5.2 nM in assay [5].

`COc1cnc(-c2nn(Cc3c(F)cc(OCCO)cc3F)c3ccccc23)nc1Nc1cc(C)ncc1F` [Example 2-1-12, 2-{3,5-difluoro-4-[(3-{4-[(5-fluoro-2-methylpyridin-4-yl)amino]-5-methoxypyrimidin-2-yl}-1H-indazol-1-yl)methyl]phenoxy}ethanol]: the IC50 in assay [1] was 33 nM; in assay [2], greater than 10000 nM; in assay [3] it was 420 nM; in assay [4], 6 nM; in assay [5], 11 nM.

For the molecule `COc1cnc(-c2nn(Cc3c(F)cc(OCCO)cc3F)c3ccccc23)nc1Nc1ccncn1` [Example 2-1-13, 2-[3,5-difluoro-4-({3-[5-methoxy-4-(pyrimidin-4-ylamino)pyrimidin-2-yl]-1H-indazol-1-yl}methyl)phenoxy]ethanol], the IC50 in assay [1] was 5 nM; in assay [2], greater than 10000 nM; in assay [3] it was 510 nM; in assay [4] it was 18 nM; in assay [5] it was 2.7 nM.

With `COc1cnc(-c2nn(Cc3c(F)cc(OCCO)cc3F)c3ccccc23)nc1Nc1cc(NC(C)=O)ncc1C` [Example 2-1-14, N-{4-[(2-{1-[2,6-difluoro-4-(2-hydroxyethoxy)benzyl]-1H-indazol-3-yl}-5-methoxypyrimidin-4-yl)amino]-5-methylpyridin-2-yl}acetamide], the IC50 in assay [1] came out at 420 nM; in assay [2] it was 1500 nM; in assay [3], 1100 nM; in assay [4] it was 39 nM; in assay [5] it was 11 nM.

As for `COc1cnc(-c2nn(Cc3c(F)cc(OCCO)cc3F)c3ccccc23)nc1Nc1ccnc(NC(=O)C2CC2)c1` [Example 2-1-15, N-{4-[(2-{1-[2,6-difluoro-4-(2-hydroxyethoxy)benzyl]-1H-indazol-3-yl}-5-methoxy-pyrimidin-4-yl)amino]pyridin-2-yl}cyclopropanecarboxamide], the IC50 is 9.8 nM in assay [1]; greater than 10000 nM in assay [2]; 360 nM in assay [3]; 24 nM in assay [4]; 1.2 nM in assay [5].

On to `COc1cnc(-c2nn(Cc3c(F)cc(OCCO)cc3F)c3ccccc23)nc1Nc1ccnc(NC(=O)NC2CC2)c1` [Example 2-1-16, 1-cyclopropyl-3-{4-[(2-{1-[2,6-difluoro-4-(2-hydroxyethoxy)benzyl]-1H-indazol-3-yl}-5-methoxypyrimidin-4-yl)amino]pyridin-2-yl}urea], for which the IC50 in assay [1] amounted to 17 nM; in assay [2], 3100 nM; in assay [3] it was 300 nM; in assay [4] it was 87 nM; in assay [5] it was 74 nM.

Turning to `COc1cnc(-c2nn(Cc3c(F)cc(OCCO)cc3F)c3ccccc23)nc1Nc1ccnc(C)c1OC` [Example 2-1-18, 2-{3,5-difluoro-4-[(3-{5-methoxy-4-[(3-methoxy-2-methylpyridin-4-yl)amino]pyrimidin-2-yl}-1H-indazol-1-yl)methyl]phenoxy}ethanol], the IC50 in assay [1] worked out at 14 nM; in assay [2], 1400 nM; in assay [3], 51 nM; in assay [4], 35 nM; in assay [5], 2.1 nM.
